Assay results published in patent publication US10851062B2, “Substituted heteroaryl compound, composition containing same, and application thereof” (Shenzhen TargetRx, Inc., priority 2016, dated 2020).
Read-outs that look alike come from different tables or passages of the source.

Key:
[1] = Pharmacokinetic evaluation in rats; type: in vivo, Sprague-Dawley rats; settings: rat; for AUC(0-inf) / AUC(0-t) / Tmax / MRT inf / F / half-life / Cmax: male, Sprague-Dawley; for AUC(0-inf) / AUC(0-t) / Tmax / MRT inf / Cmax: plasma; for MRT inf: read-out: MRTINF_pred; for F / half-life: in vivo
Method: 6 male Sprague-Dawley rats (7-8 weeks old, and weighing approximately 210 g) were divided into 2 groups with 3 rats in each group. The rats were intravenously or orally administered a single dose of compound (3 mg/kg intravenously, 10 mg/kg orally) to compare pharmacokinetic differences.
The rats were raised on standard food and water. Fasting was started 16 hours before the test. The drug was dissolved with PEG400 and dimethyl sulfoxide. The blood samples were collected from eyelids at the time points of 0.083 hours, 0.25 hours, 0.5 hours, 1 hour, 2 hours, 4 hours, 6 hours, 8 hours, 12 hours, and 24 hours after administration.
Rats were briefly anesthetized after inhalation of diethyl ether and 300 μL of blood sample was collected from the eyelids into test tubes. There was 30 μL of 1% heparin salt solution in the test tube. Tubes were dried at 60° C. overnight before use. After the blood sample was collected at a later time point, the rats were sacrificed after ether anesthesia.
Immediately after the collection of the blood sample, the test tube was gently inverted at least 5 times to ensure sufficient mixing and then placed on ice. The blood sample was centrifuged at 5000 rpm at 4° C. for 5 minutes to separate the plasma from the red blood cells. 100 μL of plasma was aspirated into a clean plastic centrifuge tube with a pipette, marking with the name of the compound and time point. Plasma was stored at −80° C. prior to analysis. The concentration of the compound of the present disclosure in plasma was determined by LC-MS/MS. The pharmacokinetic parameters were calculated based on the blood concentration of each animal at different time points.

[2] = Metabolic stability in rat liver microsomes; type: in vitro ADME, SD rat; settings: rat liver microsomes 0.5 mg/mL, compound 1 μM, NADPH, 37° C.; for microsomal CLint at 1 μM / half-life at 1 μM: Sprague-Dawley, pH 7.4; for half-life at 1 μM: read-out: t1/2 in rat liver microsomes
Method: (§1) Experiments in microsomes: Human liver microsomes: 0.5 mg/mL, Xenotech; Rat liver microsomes: 0.5 mg/mL, Xenotech; Coenzyme (NADPH/NADH): 1 mM, Sigma Life Science; Magnesium chloride: 5 mM, 100 mM phosphate buffer (pH 7.4).
(§2) Preparation of stock solution: Powder of the example compound 1-7 was accurately weighed and dissolved in DMSO to 5 mM. Preparation of phosphate buffer (100 mM, pH7.4): A pre-formulated 0.5M potassium dihydrogen phosphate (150 mL) was mixed with 0.5M dibasic potassium phosphate (700 mL). The pH of the mixture was adjusted to 7.4 with 0.5M dibasic potassium phosphate solution. The mixture was diluted 5-fold with ultrapure water before use, and magnesium chloride was added to obtain a phosphate buffer (100 mM) containing 100 mM potassium phosphate, 3.3 mM magnesium chloride, pH 7.4. A NADPH regeneration system solution (containing 6.5 mM NADP, 16.5 mM G-6-P, 3 U/mL G-6-PD, 3.3 mM magnesium chloride) was prepared and placed on wet ice prior to use. Preparation of stop solution: acetonitrile solution containing 50 ng/mL propranolol hydrochloride and 200 ng/mL tolbutamide (internal standard). 25057.5 μL of phosphate buffer (pH 7.4) was taken into a 50 mL centrifuge tube, to which 812.5 μL human liver microsomes were added, and mixed to obtain a liver microsome dilution solution with a protein concentration of 0.625 mg/mL. 25057.5 μL of phosphate buffer (pH 7.4) was taken into a 50 mL centrifuge tube, to which 812.5 μL SD rat liver microsomes were added, and mixed to obtain a liver microsome dilution solution with a protein concentration of 0.625 mg/mL.
(§3) Incubation of the samples: The stock solution of the respective compound was respectively diluted to 0.25 mM with an aqueous solution containing 70% acetonitrile, and used as a working solution, ready for use. 398 μL of the dilution solution of human liver microsomes or rat liver microsome were added to a 96-well incubation plate (N=2), respectively, and 2 μL of 0.25 mM working solution was added and mixed.
(§4) Metabolic stability assay: 300 μL of pre-chilled stop solution was added to each well of a 96-well deep well plate and placed on ice as a stop plate. The 96 well incubation plate and NADPH regeneration system were placed in a 37° C. water bath box, shaken at 100 rpm and pre-incubated for 5 min. 80 μL of incubation solution was taken out from each well of the incubation plate and added to the stop plate, mixed, and replenished with 20 μL of NADPH regeneration system solution as a 0-min sample. 80 μL of NADPH regeneration system solution was added to each well of the incubation plate to start the reaction and start counting. […] Separately, 100 μL of the reaction solution was taken at 10, 30, and 90 min reaction, respectively, added to a stop plate, and vortexed for 3 minutes to terminate the reaction. The stop plate was centrifuged at 5000×g at 4° C. for 4 min. 100 μL of the supernatant was added to a 96-well plate to which 100 μL of distilled water was previously added, mixed, and analyzed by LC-MS/MS.
(§5) Data analysis: The peak areas of the corresponding compound and internal standard were detected by LC-MS/MS system, and the ratio of the peak area of the compound to the internal standard was calculated. The slope was measured by plotting the natural logarithm of the percent of compound remaining versus time, and t1/2 and CLint were calculated according to the formula, where V/M is equal to 1/protein concentration.

[3] = Metabolic stability in human liver microsomes; type: in vitro ADME; settings: pH 7.4, human liver microsomes 0.5 mg/mL, compound 1 μM, NADPH, 37° C.; for half-life at 1 μM: read-out: t1/2 in human liver microsomes
Method: as §1, §2, §3, §4, §5

Compound	AUC(0-inf) ([1]; IV, 3 mg/kg single dose)	AUC(0-t) ([1]; IV, 3 mg/kg single dose)	Tmax ([1]; IV, 3 mg/kg single dose)	MRT inf ([1]; IV, 3 mg/kg single dose)	AUC(0-inf) ([1]; PO, 10 mg/kg single dose)	AUC(0-t) ([1]; PO, 10 mg/kg single dose)	Tmax ([1]; PO, 10 mg/kg single dose)	MRT inf ([1]; PO, 10 mg/kg single dose)	F [1]	half-life ([1]; iv, 3 mg/kg)	half-life ([1]; po, 10 mg/kg)	Cmax ([1]; IV, 3 mg/kg single dose)	Cmax ([1]; PO, 10 mg/kg single dose)	Vz_pred ([1]; IV, 3 mg/kg single dose)	Vz_pred ([1]; PO, 10 mg/kg single dose)	microsomal CLint at 1 μM [2]	half-life at 1 μM [2]	microsomal CLint at 1 μM [3]	half-life at 1 μM [3]	also measured
[2H]C([2H])(NC(=O)c1nc(C)c2cc(Oc3ccccc3)ccc2c1O)C(=O)O [Compound 11, N-[(4-hydroxy-1-methyl-7-phenoxy-3-isoquinolinyl)carbonyl]-2,2-d2-glycine]	51.6 µg·h/mL	51.6 µg·h/mL	0.08 h	2.84 h	261 µg·h/mL	260 µg·h/mL	4 h	5.87 h	151.17%	2.43 h	2.77 h	19000 ng/mL	24600 ng/mL	0.21 L/kg	0.16 L/kg	< 8.6 µL/min/mg	> 2.42 h			
[2H]Cc1nc(C(=O)NCC(=O)O)c(O)c2ccc(Oc3ccccc3)cc12 [Compound 13, N-[(4-hydroxy-1-d-methyl-7-phenoxy-3-isoquinolinyl)carbonyl] glycine]																< 8.6 µL/min/mg	> 2.42 h	< 8.6 µL/min/mg	> 2.42 h	
[2H]c1cc([2H])c(Oc2ccc3c(O)c(C(=O)NCC(=O)O)nc(C)c3c2)c([2H])c1 [Compound 23]																< 8.6 µL/min/mg	> 2.42 h	< 8.6 µL/min/mg	> 2.42 h	
[2H]c1c([2H])c([2H])c(Oc2ccc3c(O)c(C(=O)NCC(=O)O)nc(C)c3c2)c([2H])c1[2H] [Compound 32, N-[(4-hydroxy-1-methyl-7-(d5-phenoxy)-3-isoquinolinyl)carbonyl] glycine]	55.9 µg·h/mL	55.9 µg·h/mL	0.75 h	3.14 h	185 µg·h/mL	185 µg·h/mL	0.83 h	5.33 h	99.05%	2.49 h	2.43 h	12200 ng/mL	17700 ng/mL	0.18 L/kg	0.21 L/kg	< 8.6 µL/min/mg	> 2.42 h	< 8.6 µL/min/mg	> 2.42 h	
N-[(4-hydroxy-1-(d-methyl)-7-phenoxy-3-isoquinolinyl) carbonyl]-2,2-d2-glycine [Compound 34]																				CLint in rat liver microsomes [2]: <8.6 µL/min/mg; t1/2 in rat liver microsomes [2]: >2.42 h

Second part, led by results:

AUC(0-inf) ([1]; IV, 3 mg/kg single dose)	AUC(0-t) ([1]; IV, 3 mg/kg single dose)	Tmax ([1]; IV, 3 mg/kg single dose)	MRT inf ([1]; IV, 3 mg/kg single dose)	AUC(0-inf) ([1]; PO, 10 mg/kg single dose)	AUC(0-t) ([1]; PO, 10 mg/kg single dose)	Tmax ([1]; PO, 10 mg/kg single dose)	MRT inf ([1]; PO, 10 mg/kg single dose)	F [1]	half-life ([1]; iv, 3 mg/kg)	half-life ([1]; po, 10 mg/kg)	Cmax ([1]; IV, 3 mg/kg single dose)	Cmax ([1]; PO, 10 mg/kg single dose)	Vz_pred ([1]; IV, 3 mg/kg single dose)	Vz_pred ([1]; PO, 10 mg/kg single dose)	microsomal CLint at 1 μM [2]	half-life at 1 μM [2]	microsomal CLint at 1 μM [3]	half-life at 1 μM [3]	Compound	also measured
															< 8.6 µL/min/mg	> 2.42 h	< 8.6 µL/min/mg	> 2.42 h	[2H]C([2H])(NC(=O)c1nc(C([2H])([2H])[2H])c2cc(Oc3ccccc3)ccc2c1O)C(=O)O [Compound 36, N-[(4-hydroxy-1-(d3-methyl)-7-phenoxy-3-isoquinolinyl)carbonyl]-2,2-d2-glycine]	
															< 8.6 µL/min/mg	> 2.42 h	< 8.6 µL/min/mg	> 2.42 h	[2H]c1cccc(Oc2ccc3c(O)c(C(=O)NCC(=O)O)nc(C)c3c2)c1 [Compound 46, N-[(4-hydroxy-1-methyl-7-(3-d-phenoxy)-3-isoquinolinyl)carbonyl]glycine]	
															< 8.6 µL/min/mg	> 2.42 h	< 8.6 µL/min/mg	> 2.42 h	[2H]c1cc([2H])c(Oc2ccc3c(O)c(C(=O)NC([2H])([2H])C(=O)O)nc(C)c3c2)c([2H])c1 [Compound 47]	
															< 8.6 µL/min/mg	> 2.42 h	< 8.6 µL/min/mg	> 2.42 h	[2H]c1c([2H])c([2H])c(Oc2ccc3c(O)c(C(=O)NC([2H])([2H])C(=O)O)nc(C)c3c2)c([2H])c1[2H] [Compound 48, N-[(4-hydroxy-1-methyl-7-(d5-phenoxy))-3-(3-isoquinolinyl)carbonyl]-2,2-d2-glycine]	
49.5 µg·h/mL	49.4 µg·h/mL	0.08 h	2.85 h	222 µg·h/mL	218 µg·h/mL	2.67 h	5.83 h	132.44%	2.89 h	3.33 h	19500 ng/mL	25400 ng/mL	0.25 L/kg	0.24 L/kg	< 8.6 µL/min/mg	> 2.42 h	< 8.6 µL/min/mg	> 2.42 h	[2H]c1cccc(Oc2ccc3c(O)c(C(=O)NC([2H])([2H])C(=O)O)nc(C)c3c2)c1 [Compound 49, N-[(4-hydroxy-1-methyl-7-(3-d-phenoxy)-3-isoquinolinyl)carbonyl]-2,2-d2-glycine]	
63.8 µg·h/mL	63.8 µg·h/mL	0.08 h	2.82 h	196 µg·h/mL	196 µg·h/mL	2.83 h	5.03 h	92.21%	2.08 h	2.78 h	21100 ng/mL	22100 ng/mL	0.15 L/kg	0.20 L/kg	< 8.6 µL/min/mg	> 2.42 h	< 8.6 µL/min/mg	> 2.42 h	Cc1nc(C(=O)NCC(=O)O)c(O)c2ccc(Oc3ccccc3)cc12 [FG-4592, reference compound]	
